PMC8449129, “Single tracer-based protocol for broad-spectrum kinase profiling in live cells with NanoBRET” (STAR Protocols, 2021)

Legend:
Experiment in all cases: cell-based
Set-up in all cases: NanoBRET live-cell target engagement; % occupancy from displacement of tracer K10 on NanoLuc-kinase fusions, mean n=3
Settings in all cases: HEK293, read-out: % inhibition
STK10 = STK10 (Homo sapiens, UniProt O94804)
Description: (§1) • 18. Prepare 10× test compounds in OptiMEM • a. Dilute the test compound to 1000× in DMSO (or the test compound solvent). […] Add 10μL per well of 10× test compound or 10μL of the DMSO control to the 96-well plates containing cells with 1× tracer. Mix on orbital shaker for 15 s at 900 rpm. • 20. Incubate the plate at 37°C + 5% CO2 incubator for 2hr. Allow plate to cool to RT for ∼15 min, then proceed to NanoBRET^TM Assay section below. • 21. Immediately before the BRET measurements, prepare 3× Complete NanoBRET^TM Nano-Glo® Substrate in OptiMEM without serum or phenol red. […] Mix gently by inverting 5–10 times in a conical tube. (The final concentration of Extracellular NanoLuc inhibitor in the 3× solution is 60 μM, for a working concentration of 20 μM.) • a. Note: 3× solutions should be used within 1.5 h after preparation. • 22. […] Incubate 2–3 min at RT. Following addition of NanoBRET^TM Nano-Glo® Substrate, measure donor emission (e.g., 450 nm) and acceptor emission (e.g., 610 nm or 630 nm) using a NanoBRET™-compatible luminometer. Fractional occupancy Quantitation • 2. Determine Fractional Occupancy with the following equation; % Occupancy = [1 – (X – Z)/( Y – Z)]∗100 • Where: • X = BRET in the presence of the test compound and tracer, • Y = BRET in the presence of the 100% BRET Control (Tracer + DMSO) • Z = BRET for the Zero BRET Control, e.g., • a. BRET from the NanoLuc Control Vector • b. BRET from Kinase/NanoLuc fusion + saturating dose of control test compound.

NIM1K = NIM1K (Homo sapiens, UniProt Q8IY84)
Description: as §1

HIPK4 = HIPK4 (Homo sapiens, UniProt Q8NE63)
Description: as §1

STK32B = STK32B (Homo sapiens, UniProt Q9NY57)
Description: as §1

MAP3K11 = MAP3K11 (Homo sapiens, UniProt Q16584)
Description: as §1

RPS6KA2 = RPS6KA2 (Homo sapiens, UniProt Q15349)
Description: as §1

CDK20 = CDK20 (Homo sapiens, UniProt Q8IZL9)
Description: as §1

MARK2 = MARK2 (Homo sapiens, UniProt Q7KZI7)
Description: as §1

MAPK4 = MAPK4 (Homo sapiens, UniProt P31152)
Description: as §1

RIPK2 = RIPK2 (Homo sapiens, UniProt O43353)
Description: as §1

MAPK6 = MAPK6 (Homo sapiens, UniProt Q16659)
Description: as §1

CDK17 = CDK17 (Homo sapiens, UniProt Q00537)
Description: as §1

BRAF(V600E) = BRAF(V600E) (Homo sapiens, UniProt P15056, V600E)
Description: as §1

WEE2 = WEE2 (Homo sapiens, UniProt P0C1S8)
Description: as §1

CSNK1D = CSNK1D (Homo sapiens, UniProt P48730)
Description: as §1

LIMK2 = LIMK2 (Homo sapiens, UniProt P53671)
Description: as §1

MAP3K2 = MAP3K2 (Homo sapiens, UniProt Q9Y2U5)
Description: as §1

ITK = ITK (Homo sapiens, UniProt Q08881)
Description: as §1

Chain of ITK (Q08881 whole entry): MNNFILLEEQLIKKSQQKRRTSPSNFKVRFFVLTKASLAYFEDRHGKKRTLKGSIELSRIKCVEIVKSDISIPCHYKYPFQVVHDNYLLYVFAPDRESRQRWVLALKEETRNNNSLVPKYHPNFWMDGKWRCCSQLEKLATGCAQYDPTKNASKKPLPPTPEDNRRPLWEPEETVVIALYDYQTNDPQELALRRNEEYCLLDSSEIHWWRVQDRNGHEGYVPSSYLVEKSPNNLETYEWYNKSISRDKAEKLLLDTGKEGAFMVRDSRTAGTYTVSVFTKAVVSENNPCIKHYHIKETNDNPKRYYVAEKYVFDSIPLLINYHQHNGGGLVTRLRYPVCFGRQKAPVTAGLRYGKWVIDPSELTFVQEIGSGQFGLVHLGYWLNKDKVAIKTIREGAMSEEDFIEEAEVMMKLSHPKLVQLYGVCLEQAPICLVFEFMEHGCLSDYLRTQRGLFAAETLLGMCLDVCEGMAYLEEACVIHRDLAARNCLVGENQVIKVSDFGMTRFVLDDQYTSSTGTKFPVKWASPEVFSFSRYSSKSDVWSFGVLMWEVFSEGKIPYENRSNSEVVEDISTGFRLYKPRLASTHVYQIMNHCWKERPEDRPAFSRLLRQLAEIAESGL
Chain of LIMK2 (P53671 whole entry): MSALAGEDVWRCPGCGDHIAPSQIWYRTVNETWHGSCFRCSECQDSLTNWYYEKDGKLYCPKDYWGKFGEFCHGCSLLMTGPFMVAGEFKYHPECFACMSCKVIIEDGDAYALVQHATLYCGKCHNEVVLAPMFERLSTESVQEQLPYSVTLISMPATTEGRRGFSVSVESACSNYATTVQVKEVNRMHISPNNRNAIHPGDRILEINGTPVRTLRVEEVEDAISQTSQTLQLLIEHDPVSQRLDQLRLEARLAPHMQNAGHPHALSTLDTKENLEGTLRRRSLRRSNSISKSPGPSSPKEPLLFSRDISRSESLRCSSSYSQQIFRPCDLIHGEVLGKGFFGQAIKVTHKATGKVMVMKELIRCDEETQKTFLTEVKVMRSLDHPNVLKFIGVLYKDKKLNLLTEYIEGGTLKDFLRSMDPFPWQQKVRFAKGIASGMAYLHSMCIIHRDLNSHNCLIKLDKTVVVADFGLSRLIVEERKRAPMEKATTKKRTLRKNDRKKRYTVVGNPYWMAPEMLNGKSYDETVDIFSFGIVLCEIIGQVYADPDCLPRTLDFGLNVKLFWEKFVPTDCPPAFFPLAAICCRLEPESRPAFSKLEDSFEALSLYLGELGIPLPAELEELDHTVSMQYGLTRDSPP
Chain of MAPK6 (Q16659 whole entry): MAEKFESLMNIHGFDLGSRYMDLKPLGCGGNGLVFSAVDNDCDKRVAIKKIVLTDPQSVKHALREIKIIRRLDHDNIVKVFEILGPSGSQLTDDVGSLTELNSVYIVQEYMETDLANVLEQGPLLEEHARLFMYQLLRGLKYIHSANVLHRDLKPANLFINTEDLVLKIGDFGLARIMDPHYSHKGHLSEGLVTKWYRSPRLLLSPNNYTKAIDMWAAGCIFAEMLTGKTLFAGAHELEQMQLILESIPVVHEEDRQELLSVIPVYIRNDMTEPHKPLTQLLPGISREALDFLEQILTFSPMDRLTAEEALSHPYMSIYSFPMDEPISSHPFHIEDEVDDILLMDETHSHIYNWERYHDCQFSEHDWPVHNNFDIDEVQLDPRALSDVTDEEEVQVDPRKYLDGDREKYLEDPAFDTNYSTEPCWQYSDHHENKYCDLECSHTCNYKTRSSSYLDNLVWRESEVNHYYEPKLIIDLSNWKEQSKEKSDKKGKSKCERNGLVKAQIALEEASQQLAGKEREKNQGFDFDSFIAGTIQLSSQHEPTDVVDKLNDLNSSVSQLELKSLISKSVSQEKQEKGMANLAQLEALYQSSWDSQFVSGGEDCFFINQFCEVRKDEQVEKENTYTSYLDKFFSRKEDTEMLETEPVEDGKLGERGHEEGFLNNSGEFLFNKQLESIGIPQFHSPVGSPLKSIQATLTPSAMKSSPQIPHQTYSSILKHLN
Chain of WEE2 (P0C1S8 whole entry): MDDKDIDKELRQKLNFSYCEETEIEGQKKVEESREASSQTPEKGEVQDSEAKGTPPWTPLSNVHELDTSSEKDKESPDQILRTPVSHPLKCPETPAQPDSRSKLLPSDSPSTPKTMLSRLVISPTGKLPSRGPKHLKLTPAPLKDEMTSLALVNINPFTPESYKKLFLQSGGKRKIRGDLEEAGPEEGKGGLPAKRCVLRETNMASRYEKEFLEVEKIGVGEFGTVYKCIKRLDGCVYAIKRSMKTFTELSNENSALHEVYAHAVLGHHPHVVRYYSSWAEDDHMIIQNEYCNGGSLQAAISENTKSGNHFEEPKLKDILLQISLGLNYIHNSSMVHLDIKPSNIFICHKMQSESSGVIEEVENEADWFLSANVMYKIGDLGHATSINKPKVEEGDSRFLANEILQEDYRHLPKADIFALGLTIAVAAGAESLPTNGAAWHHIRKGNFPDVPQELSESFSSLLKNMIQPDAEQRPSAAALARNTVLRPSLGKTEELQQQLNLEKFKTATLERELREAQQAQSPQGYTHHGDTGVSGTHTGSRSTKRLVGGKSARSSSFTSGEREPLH
Chain of STK10 (O94804 whole entry): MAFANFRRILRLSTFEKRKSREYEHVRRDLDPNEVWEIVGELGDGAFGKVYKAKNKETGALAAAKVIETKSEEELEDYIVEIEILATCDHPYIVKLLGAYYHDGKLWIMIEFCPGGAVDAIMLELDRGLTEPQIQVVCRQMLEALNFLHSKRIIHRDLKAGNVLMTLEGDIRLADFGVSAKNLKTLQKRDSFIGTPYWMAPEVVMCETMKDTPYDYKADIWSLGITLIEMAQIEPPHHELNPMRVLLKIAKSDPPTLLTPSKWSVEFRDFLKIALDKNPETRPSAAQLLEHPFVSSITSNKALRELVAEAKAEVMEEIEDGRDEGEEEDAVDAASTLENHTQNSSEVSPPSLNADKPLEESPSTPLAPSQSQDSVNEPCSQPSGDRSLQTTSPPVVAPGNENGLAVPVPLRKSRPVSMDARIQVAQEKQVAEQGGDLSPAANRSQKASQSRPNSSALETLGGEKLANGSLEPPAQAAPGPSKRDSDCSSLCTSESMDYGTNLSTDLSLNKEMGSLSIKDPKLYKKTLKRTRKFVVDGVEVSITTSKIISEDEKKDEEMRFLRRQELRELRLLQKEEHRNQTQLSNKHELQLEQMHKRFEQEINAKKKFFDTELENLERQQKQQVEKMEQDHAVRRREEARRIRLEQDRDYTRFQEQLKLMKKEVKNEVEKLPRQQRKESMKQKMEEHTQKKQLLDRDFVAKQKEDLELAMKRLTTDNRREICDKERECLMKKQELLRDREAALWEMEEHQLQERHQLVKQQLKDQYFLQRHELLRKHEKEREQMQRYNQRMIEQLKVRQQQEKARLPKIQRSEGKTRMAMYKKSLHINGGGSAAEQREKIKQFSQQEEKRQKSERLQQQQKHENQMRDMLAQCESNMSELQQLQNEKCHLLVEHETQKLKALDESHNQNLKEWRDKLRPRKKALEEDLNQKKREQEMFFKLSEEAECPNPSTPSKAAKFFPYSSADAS
Chain of HIPK4 (Q8NE63 whole entry): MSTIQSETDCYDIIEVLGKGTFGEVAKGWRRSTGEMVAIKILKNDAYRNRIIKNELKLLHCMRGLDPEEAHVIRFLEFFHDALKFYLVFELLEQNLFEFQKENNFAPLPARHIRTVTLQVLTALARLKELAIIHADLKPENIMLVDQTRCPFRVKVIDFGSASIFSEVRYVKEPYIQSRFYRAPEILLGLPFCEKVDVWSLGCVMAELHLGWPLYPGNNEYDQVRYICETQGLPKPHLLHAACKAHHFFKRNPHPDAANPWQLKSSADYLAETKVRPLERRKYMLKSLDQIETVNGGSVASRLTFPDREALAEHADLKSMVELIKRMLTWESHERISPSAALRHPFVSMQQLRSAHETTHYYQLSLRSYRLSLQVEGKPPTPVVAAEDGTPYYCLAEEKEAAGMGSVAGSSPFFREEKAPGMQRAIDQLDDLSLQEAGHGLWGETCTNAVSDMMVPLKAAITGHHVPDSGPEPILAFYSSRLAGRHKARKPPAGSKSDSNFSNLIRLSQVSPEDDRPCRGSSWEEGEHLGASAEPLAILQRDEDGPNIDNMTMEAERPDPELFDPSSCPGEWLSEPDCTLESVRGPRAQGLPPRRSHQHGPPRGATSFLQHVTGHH
Chain of CDK17 (Q00537 whole entry): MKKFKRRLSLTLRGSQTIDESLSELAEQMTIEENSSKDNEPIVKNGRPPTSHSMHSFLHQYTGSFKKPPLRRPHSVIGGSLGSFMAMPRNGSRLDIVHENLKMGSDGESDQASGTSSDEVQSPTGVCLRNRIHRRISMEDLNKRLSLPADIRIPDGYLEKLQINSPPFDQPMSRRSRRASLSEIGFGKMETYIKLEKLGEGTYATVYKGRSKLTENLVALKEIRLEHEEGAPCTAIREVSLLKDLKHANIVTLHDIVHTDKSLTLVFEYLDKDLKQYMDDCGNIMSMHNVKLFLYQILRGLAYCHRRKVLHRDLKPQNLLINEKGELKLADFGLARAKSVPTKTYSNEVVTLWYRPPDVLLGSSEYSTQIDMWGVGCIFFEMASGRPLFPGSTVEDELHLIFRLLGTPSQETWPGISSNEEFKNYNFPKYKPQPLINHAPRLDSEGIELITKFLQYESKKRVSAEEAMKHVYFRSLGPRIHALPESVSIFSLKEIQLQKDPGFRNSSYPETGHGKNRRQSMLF
Chain of CDK20 (Q8IZL9 whole entry): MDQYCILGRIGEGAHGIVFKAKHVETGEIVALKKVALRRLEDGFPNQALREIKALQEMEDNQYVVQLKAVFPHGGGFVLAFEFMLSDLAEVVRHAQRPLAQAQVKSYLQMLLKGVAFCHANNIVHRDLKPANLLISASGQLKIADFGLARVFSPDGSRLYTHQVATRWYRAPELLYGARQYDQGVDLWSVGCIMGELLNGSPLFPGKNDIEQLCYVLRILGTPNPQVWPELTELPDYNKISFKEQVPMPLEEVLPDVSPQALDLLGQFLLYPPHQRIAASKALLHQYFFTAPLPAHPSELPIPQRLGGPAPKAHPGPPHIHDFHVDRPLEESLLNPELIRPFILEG

inhibition at 1 µM (STK10): 35%
inhibition at 1 µM (NIM1K): -3%
inhibition at 1 µM (HIPK4): -9%
inhibition at 1 µM (STK32B): -1%
inhibition at 1 µM (MAP3K11): 0%
inhibition at 1 µM (RPS6KA2): -7%
inhibition at 1 µM (CDK20): -11%
inhibition at 1 µM (MARK2): 4%
inhibition at 1 µM (MAPK4): -12%
inhibition at 1 µM (RIPK2): 43%
inhibition at 1 µM (MAPK6): 2%
inhibition at 1 µM (CDK17): 3%
inhibition at 1 µM (BRAF(V600E)): -4%
inhibition at 1 µM (WEE2): -4%
inhibition at 1 µM (CSNK1D): -4%
inhibition at 1 µM (LIMK2): 32%
inhibition at 1 µM (MAP3K2): 6%
inhibition at 1 µM (ITK): -1%
SMILES: C[C@@H](Oc1cc(-c2cnn(C3CCNCC3)c2)cnc1N)c1c(Cl)ccc(F)c1Cl [crizotinib]
